Measurements as given in patent US20180021361A1, “COMBINATION DRUG TREATMENT FOR HEPATITIS C INFECTION” (JANSSEN PHARMACEUTICALS, INC., priority 2016, published 2018).
Entries after “also recorded” stand apart in the source; their conditions may differ.

Experiments:
[1] = Phase-1 drug-drug interaction study, plasma PK in healthy volunteers
Description: A drug-drug interaction study (DDI) study is a study designed to investigate whether a drug alters the pharmacokinetics of another drug or drugs or their metabolites.
Compound (III) Subjects received 800 mg of Compound (III) once daily from Days 1-3, Days 11-13, and Days 21-23. PK blood samples for determination of Compound (III) and metabolite concentrations were collected in reference to the Day 3, Day 13, and Day 23 doses.
Simeprevir—Subjects received 150 mg of Simeprevir (SMV) once daily from Days 4-23. PK blood samples for determination of SMV concentrations were collected in reference to the Day 10, Day 13, Day 20, and Day 23 doses.
Odalasvir—Subjects received a loading dose of 150 mg on Day 14, and 50 mg of Odalasvir once daily from Days 15-23. PK blood samples for determination of Odalasvir concentrations were collected in reference to the Day 20 and Day 23 doses.
Compound (III)—Subjects received 800 mg of Compound (III) once daily from Days 1-3, Days 11-13 and Days 21-23. PK blood samples for determination of Compound (III) and metabolite concentrations were collected in reference to the Day 3, Day 13, and Day 23 doses.
Simeprevir—Subjects receive 150 mg of SMV once daily from Days 4-23. PK blood samples for determination of SMV concentrations were collected in reference to the Day 20 and Day 23 doses.
Odalasvir—Subjects receive a loading dose of 150 mg on Day 4, and 50 mg of Odalasvir once daily from Days 5-23. PK blood samples for determination of Odalasvir concentrations were collected in reference to the Day 10, Day 13, Day 20, and Day 23 doses.
A primary objective was to evaluate the effect of multiple oral doses of Odalasvir (alone), Simeprevir (alone), and Odalasvir and Simeprevir on the multiple oral dose PK of Compound (III) (and certain metabolites thereof, such as the major metabolites in systemic circulation) in healthy volunteers. Other objectives were to evaluate the safety and tolerability of multiple oral doses of Compound (III) when administered alone and in combination with single and multiple oral doses of Odalasvir and/or Simeprevir in healthy volunteers; to determine the potential effect of Compound of Compound (III) and/or Odalasvir on the steady-state PK of Simeprevir in healthy volunteers; to determine the potential effect of Compound of Compound (III) and/or Simeprevir on the steady state PK of Odalasvir in healthy volunteers.
Various other PK parameters were estimated including: […], t1/2, Tmax, Tlast, CL/F, Vz/F, and λz.
Odalasvir: 150 mg loading dose; 50 mg for the remainder of the study period.

[2] = Phase 2a open-label combination study, pharmacokinetics; assay type: in vivo, human
Description: A randomized, Phase 2a, open-label study was carried out to evaluate the safety, pharmacokinetics and efficacy of the combination of Compound (III), Odalasvir and Simeprevir in Genotype 1 treatment-naïve subjects with chronic hepatitis C. Other treatment-naïve subjects included Genotype 2, 3, 4, 5 and 6. The aim of the study was to determine the efficacy, pharmacokinetics (PK), and safety of Compound (III)+Odalasvir±SMV in HCV-infected subjects. […] Efficacy, PK and safety evaluations were conducted during and through 24 weeks post dosing. Up to 15 cohorts were enrolled; data was generated from cohorts that have completed dosing.

OATP1B1 = molecular target: T1, OATP1B1 (Homo sapiens, UniProt Q9Y6L6); details: uptake transporter; cited from earlier work
T1 sequence (Q9Y6L6 1-691): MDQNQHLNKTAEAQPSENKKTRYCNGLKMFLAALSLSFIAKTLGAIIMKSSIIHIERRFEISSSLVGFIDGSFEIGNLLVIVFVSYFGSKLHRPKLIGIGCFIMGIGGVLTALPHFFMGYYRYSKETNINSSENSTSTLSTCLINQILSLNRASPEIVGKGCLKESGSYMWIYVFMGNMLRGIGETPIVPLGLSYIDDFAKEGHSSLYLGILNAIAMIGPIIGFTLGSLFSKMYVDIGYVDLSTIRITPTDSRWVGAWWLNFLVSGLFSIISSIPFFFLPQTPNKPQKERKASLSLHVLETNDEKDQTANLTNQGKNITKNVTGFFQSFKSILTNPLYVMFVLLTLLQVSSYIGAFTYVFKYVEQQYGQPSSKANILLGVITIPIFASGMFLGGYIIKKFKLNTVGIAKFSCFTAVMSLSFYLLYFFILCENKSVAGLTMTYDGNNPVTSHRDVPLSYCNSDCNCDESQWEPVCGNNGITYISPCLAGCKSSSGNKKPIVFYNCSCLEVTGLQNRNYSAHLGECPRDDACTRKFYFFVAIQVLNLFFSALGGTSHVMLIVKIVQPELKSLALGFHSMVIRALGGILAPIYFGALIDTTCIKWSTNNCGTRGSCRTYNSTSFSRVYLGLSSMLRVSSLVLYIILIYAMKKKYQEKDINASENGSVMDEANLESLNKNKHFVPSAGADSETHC

MRP2 = MRP2 (Homo sapiens, UniProt Q92887); details: efflux transporter; cited from earlier work
Chain of MRP2 (Q92887 whole entry): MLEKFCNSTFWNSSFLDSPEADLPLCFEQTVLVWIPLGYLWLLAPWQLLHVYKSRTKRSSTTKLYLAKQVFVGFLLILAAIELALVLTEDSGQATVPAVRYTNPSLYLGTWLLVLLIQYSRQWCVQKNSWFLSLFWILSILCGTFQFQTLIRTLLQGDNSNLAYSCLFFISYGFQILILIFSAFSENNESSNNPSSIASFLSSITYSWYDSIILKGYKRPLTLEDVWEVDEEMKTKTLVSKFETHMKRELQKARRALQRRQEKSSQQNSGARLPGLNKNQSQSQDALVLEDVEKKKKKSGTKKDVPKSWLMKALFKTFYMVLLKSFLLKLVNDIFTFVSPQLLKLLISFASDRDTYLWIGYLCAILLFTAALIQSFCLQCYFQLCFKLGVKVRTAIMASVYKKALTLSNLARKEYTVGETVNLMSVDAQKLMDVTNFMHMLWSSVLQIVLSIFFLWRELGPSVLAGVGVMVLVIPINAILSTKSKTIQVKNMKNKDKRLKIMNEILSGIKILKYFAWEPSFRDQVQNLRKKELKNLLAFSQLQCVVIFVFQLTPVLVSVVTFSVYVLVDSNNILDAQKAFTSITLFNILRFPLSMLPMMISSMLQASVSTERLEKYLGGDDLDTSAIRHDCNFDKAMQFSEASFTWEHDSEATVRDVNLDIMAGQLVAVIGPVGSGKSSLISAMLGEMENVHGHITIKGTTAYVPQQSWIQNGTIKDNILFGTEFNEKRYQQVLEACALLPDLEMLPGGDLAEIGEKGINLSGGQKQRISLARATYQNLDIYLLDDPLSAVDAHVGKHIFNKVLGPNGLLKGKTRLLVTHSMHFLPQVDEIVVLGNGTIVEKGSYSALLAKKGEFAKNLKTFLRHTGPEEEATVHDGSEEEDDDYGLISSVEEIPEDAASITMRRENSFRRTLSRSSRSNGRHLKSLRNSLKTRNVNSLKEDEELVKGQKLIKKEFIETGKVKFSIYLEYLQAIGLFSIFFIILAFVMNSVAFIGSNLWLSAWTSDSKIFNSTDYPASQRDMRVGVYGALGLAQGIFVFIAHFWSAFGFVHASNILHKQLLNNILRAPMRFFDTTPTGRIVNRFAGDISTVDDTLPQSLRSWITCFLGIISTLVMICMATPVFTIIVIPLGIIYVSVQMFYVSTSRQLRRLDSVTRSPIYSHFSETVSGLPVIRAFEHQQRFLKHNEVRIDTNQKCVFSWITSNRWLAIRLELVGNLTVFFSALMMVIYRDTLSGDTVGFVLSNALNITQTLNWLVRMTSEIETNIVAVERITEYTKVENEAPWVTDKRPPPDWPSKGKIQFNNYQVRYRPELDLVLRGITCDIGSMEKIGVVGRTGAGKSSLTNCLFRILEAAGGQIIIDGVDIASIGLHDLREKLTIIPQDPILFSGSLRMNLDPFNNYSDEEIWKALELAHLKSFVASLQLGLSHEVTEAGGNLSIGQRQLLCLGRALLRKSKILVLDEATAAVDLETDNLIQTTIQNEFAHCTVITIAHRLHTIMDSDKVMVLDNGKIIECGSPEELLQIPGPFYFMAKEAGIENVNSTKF

P-gp = P-gp (Homo sapiens, UniProt P08183); details: efflux transporter; cited from earlier work
Chain of P-gp (P08183 whole entry): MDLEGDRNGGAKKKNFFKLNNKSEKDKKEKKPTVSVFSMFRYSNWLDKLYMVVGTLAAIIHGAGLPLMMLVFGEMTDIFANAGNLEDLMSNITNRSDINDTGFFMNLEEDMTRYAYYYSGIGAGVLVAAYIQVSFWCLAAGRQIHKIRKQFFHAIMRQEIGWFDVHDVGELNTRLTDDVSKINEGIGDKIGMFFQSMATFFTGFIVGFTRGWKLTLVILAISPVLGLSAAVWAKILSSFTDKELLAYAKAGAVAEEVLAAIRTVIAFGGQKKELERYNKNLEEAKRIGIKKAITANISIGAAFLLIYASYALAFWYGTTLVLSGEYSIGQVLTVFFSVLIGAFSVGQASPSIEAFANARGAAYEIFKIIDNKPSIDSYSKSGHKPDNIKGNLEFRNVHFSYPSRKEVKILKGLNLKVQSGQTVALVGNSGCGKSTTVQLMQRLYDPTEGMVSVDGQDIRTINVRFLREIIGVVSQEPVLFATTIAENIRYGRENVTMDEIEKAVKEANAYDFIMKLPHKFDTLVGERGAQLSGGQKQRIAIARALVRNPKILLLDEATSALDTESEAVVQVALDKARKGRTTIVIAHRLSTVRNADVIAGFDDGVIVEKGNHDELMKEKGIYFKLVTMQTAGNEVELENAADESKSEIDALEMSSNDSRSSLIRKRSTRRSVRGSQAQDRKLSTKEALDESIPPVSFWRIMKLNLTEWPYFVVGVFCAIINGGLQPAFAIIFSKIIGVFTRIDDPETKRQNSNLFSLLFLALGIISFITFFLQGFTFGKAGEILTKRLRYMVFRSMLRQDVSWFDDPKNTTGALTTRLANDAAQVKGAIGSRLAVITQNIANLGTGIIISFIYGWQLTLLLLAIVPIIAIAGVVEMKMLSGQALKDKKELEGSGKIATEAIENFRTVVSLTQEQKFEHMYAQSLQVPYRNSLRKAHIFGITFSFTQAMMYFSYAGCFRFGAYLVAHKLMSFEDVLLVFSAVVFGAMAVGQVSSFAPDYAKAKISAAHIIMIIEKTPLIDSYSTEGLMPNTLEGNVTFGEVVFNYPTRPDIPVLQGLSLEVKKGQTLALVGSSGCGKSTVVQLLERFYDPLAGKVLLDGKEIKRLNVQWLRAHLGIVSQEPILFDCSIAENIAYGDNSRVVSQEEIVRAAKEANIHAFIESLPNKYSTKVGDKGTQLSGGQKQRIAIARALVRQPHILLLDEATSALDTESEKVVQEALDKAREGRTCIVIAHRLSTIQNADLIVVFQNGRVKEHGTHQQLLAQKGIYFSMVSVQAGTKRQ

BSEP = BSEP (Homo sapiens, UniProt O95342); details: efflux transporter; cited from earlier work
Chain of BSEP (O95342 whole entry): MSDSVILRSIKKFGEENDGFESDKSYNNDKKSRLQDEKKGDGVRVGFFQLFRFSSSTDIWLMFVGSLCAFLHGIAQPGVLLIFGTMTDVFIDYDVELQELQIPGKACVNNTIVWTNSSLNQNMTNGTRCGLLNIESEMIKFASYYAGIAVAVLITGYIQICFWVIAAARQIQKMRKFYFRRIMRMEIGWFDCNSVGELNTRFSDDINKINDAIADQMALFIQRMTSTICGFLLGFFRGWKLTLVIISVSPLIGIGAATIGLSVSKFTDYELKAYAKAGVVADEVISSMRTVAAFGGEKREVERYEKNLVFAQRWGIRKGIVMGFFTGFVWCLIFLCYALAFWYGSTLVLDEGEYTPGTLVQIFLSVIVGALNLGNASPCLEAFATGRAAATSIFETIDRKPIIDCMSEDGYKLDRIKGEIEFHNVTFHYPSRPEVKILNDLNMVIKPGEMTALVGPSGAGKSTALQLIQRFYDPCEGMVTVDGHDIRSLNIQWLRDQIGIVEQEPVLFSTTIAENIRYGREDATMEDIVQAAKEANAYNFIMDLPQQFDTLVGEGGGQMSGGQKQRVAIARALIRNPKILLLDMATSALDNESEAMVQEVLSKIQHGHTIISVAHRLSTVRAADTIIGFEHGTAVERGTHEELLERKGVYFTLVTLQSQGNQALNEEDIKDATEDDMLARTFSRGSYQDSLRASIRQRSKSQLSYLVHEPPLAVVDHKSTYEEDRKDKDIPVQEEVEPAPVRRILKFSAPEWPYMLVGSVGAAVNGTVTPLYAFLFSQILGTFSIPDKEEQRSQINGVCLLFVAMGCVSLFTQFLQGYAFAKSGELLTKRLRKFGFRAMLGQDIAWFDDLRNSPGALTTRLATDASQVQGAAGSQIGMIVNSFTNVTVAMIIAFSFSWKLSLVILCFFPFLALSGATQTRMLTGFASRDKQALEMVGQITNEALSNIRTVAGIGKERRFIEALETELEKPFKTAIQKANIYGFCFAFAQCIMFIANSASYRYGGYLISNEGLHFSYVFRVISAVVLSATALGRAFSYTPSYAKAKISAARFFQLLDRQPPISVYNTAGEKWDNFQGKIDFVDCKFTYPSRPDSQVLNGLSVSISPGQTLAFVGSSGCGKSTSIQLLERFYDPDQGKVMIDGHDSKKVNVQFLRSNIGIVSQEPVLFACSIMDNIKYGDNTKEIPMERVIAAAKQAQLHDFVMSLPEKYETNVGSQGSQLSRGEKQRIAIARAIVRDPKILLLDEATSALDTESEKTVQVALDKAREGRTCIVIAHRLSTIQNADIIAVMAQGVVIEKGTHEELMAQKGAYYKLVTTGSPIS

[3] = prior drug-drug interaction study, Digoxin a pgp-substrate; cited from earlier work
[4] = prior drug-drug interaction study, Rosuvastatin substrate of OATPs & BCRP; cited from earlier work

SMILES | exposure increase caused by Odalasvir ([1]; DDI study results) [×] | exposure increase caused by SMV ([1]; DDI study results) | change of exposure on increasing Compound (III) dose from 400 to 800 mg ([2]; HCV GT 1 patients) | in vitro inhibition of OATP1B1 (OATP1B1) | in vitro inhibition of MRP2 (MRP2) | in vitro inhibition of P-gp (P-gp) | in vitro inhibition of BSEP (BSEP) | exposure increase, effect of the three Compounds ([1]; DDI study results) [×] | increase of exposure with the combination of the three drugs ([1]; human in vivo study) [times] | effect of Compound (III) on exposure / bioavailability ([1]; human subjects) | increase in exposure of Digoxin [3] [%] | increase in Rosuvastatin exposure [4] [fold] | observed exposure in Cohort 1 / group (i) versus anticipated ([2]; Compound (III) 400 mg, ODV 50 mg QD, SMV 100 mg QD) | decrease of exposure on reducing Simeprevir dosing from 100 mg to 75 mg QD ([2]; in vivo)
C[C@]1(O)[C@H](n2ccc(=O)[nH]c2=O)O[C@](F)(CO)[C@H]1O [Compound A-1] | 1.5 | no apparent effect | less than proportionally | – | – | – | – | – | – | – | – | – | – | –
COc1ccc2c(O[C@@H]3C[C@H]4C(=O)N[C@]5(C(=O)NS(=O)(=O)C6CC6)C[C@H]5/C=C\CCCCN(C)C(=O)[C@@H]4C3)cc(-c3nc(C(C)C)cs3)nc2c1C [SMV, Simeprevir, reference compound] | 1.6 | – | – | strong in vitro inhibition | strong/moderate | strong/moderate | strong/moderate | 1.6 | 1.6 | no apparent effect; also recorded: does not alter | 35 | 3 | higher than anticipated | less than proportionally
C[C@H](NP(=O)(O)OC[C@@]1(F)O[C@@H](n2ccc(=O)[nH]c2=O)[C@](C)(O)[C@@H]1O)C(=O)O [Compound A-3] | 2.6 | 1.6 × | – | – | – | – | – | – | – | – | – | – | – | –
